Data from patent publication US20240180149A1, “FIRE ANT BAITS WITH ENHANCED SELECTIVITY” (The United States of America, as represented by the …, priority 2022, published 2024).
“Also recorded” adds a separate entry of the source.

Columns and labels:
little black ants = experiment: Two-choice field feeding bioassay on little black ants (soybean oil); assay type: in vivo, Monomorium minimum
Text: (§1) Ant feeding bioassays—Multiple-choice and a paired two-choice bioassays were used in this study. An exemplary schematic of the multichoice bioassay field feeding setup is shown in FIG. 1A, and an exemplary schematic of the two-choice bioassay field feeding setup is shown in FIG. 1B. Soybean oil was used as a food source for all the bioassays (Great Value, purchased from Walmart in Greenville Mississippi, USA). The feeding apparatus was a filtered 1-ml pipette tip with the part 0.5 cm below the filter removed. In multiple-choice bioassays, five concentrations of the test compounds were tested with untreated soybean oil as a control, and in two-choice bioassays, the compound at certain concentration was tested against the control oil. Eighty microliter soybean oil was loaded onto each filter. After being weighed, the apparatuses with oil were placed in the field for about 2 hours. The apparatuses were then collected and frozen under −40° C. to kill all ants. The apparatuses were weighed again after all ants were removed from the apparatuses. The difference in the weight of apparatuses before and after the feeding bioassays was the oil consumption. Feeding sites were at least 10 m away from each other for fire ants, and 3 m away for little black ants and for thief ants. The difference in oil consumption among/between treatment and control apparatuses was used to evaluate the effect of tested compound on the feeding of fire ants. For multiple-choice bioassays, a one-way ANOVA was performed to compare the effect of different concentrations of tested compound on the percentage of oil consumption. Tukey's HSD test was used for multiple comparisons. A paired t test was used in statistical analysis for the two-choice bioassays.
(§2) Two choice bioassays—Two-choice bioassays were conducted at six concentrations of trans-solenopsis A in soybean oil, including 6.6, 3.3, 1.7, 0.8, 0.4, and 0.2 mg/g for fire ants and little black ants, and four concentrations for thief ants including 6.6, 3.3, 1.7, and 0.8 mg/g. Feeding sites were selected using blank bait (untreated soybean oil in the feeding apparatuses). Blank baits were placed at the flagged sites for 30 minutes before the bioassay, and active feeding sites then used for the bioassays. Bioassays on fire ants were conducted in open area where most baits were hit by fire ants. Bioassays on little black ants and thief ants were conducted under the bushes, since baits under the bushes had more chances to be hit by little black ants or thief ants.

thief ants = experiment: Two-choice field feeding bioassay on thief ants (soybean oil); assay type: in vivo, Solenopsis molesta
Text: as §1, §2

fire ants [1] = experiment: Two-choice field feeding bioassay on fire ants (soybean oil); assay type: in vivo, Solenopsis invicta; details: two-choice vs control oil
Text: as §1
Two choice bioassays—Two-choice bioassays were conducted at six concentrations of trans-solenopsis A in soybean oil, including 6.6, 3.3, 1.7, 0.8, 0.4, and 0.2 mg/g for fire ants and little black ants, and four concentrations for thief ants including 6.6, 3.3, 1.7, and 0.8 mg/g. […]

fire ants [2] = experiment: Multiple-choice field feeding bioassay on fire ants (soybean oil); assay type: in vivo, Solenopsis invicta; details: ten concentrations 0.015-6.6 mg/g in soybean oil, two sets (P=0.076; P=0.703), one-way ANOVA
Text: as §1, with “The difference in oil consumption among/between treatment and control apparatuses was used to evaluate the effect of tested compound on the feeding of fire ants. For multiple-choice bioassays, a one-way ANOVA was performed to compare the effect of different concentrations of tested compound on the percentage of oil consumption. Tukey's HSD test was used for multiple comparisons. A paired t test was used in statistical analysis for the two-choice bioassays.” left out

[3] = two-choice vs control oil, 1.66 mg/g
[4] = two-choice vs control oil, 1.66 mg/g, listed as Trans-solenopsisn A
[5] = two-choice vs control oil, 3.3 mg/g
[6] = two-choice vs control oil, 3.3 mg/g, listed as Trans-solenopsisn A
[7] = two-choice vs control oil, 6.6 mg/g
[8] = two-choice vs control oil, 6.6 mg/g, listed as Trans-solenopsisn A

CCCCCCCCCCC[C@@H]1CCC[C@@H](C)N1 (relative stereo) [trans-solenopsin A]
inhibition of feeding by little black ants on soybean oil (little black ants; two-choice vs control oil, 0.42 mg/g, P=0.07): very close to be statistically significant
feeding by little black ants on soybean oil (little black ants; two-choice vs control oil, 0.83 mg/g): significantly inhibited the feeding
feeding by little black ants on soybean oil (little black ants; two-choice vs control oil, 0.83 mg/g, listed as Trans-solenopsisn A): significantly inhibited feeding
feeding by little black ants on soybean oil (little black ants; [3]): significantly inhibited the feeding
feeding by little black ants on soybean oil (little black ants; [4]): significantly inhibited feeding
feeding by little black ants on soybean oil (little black ants; [5]): significantly inhibited the feeding
feeding by little black ants on soybean oil (little black ants; [6]): significantly inhibited feeding
feeding by little black ants on soybean oil (little black ants; [7]): almost completely shut down; also recorded: significantly inhibited the feeding
feeding by little black ants on soybean oil (little black ants; [8]): significantly inhibited feeding; also recorded: almost completely inhibited
concentrations that significantly inhibited feeding by little black ants (little black ants; two-choice, paired t test, P<=0.045): > 0.42 mg/g
share of oil consumed by little black ants that was trans-solenopsin A treated (little black ants; two-choice, 3.3 mg/g): 9.63%
inhibition of feeding by thief ants on soybean oil (thief ants; two-choice vs control oil, 0.80 mg/g, P=0.14): not statistically significant
feeding by thief ants on soybean oil (thief ants; [3]): significantly inhibited the feeding
feeding by thief ants on soybean oil (thief ants; [4]): feeding inhibition was significant
feeding by thief ants on soybean oil (thief ants; [5]): significantly inhibited the feeding
feeding by thief ants on soybean oil (thief ants; [6]): feeding inhibition was significant
feeding by thief ants on soybean oil (thief ants; [7]): almost completely stopped; also recorded: completely shut down; also recorded: significantly inhibited the feeding
feeding by thief ants on soybean oil (thief ants; [8]): feeding inhibition was significant; also recorded: almost completely inhibited
share of oil consumed by thief ants that was trans-solenopsin A-treated (thief ants; two-choice, concentration not restated (previous sentence: 3.3 mg/g)): 1.52%
feeding preference of fire ants for soybean oil (fire ants [1]; 0.27 mg/g (270 ppm), P=0.049): fed preferentially on oil treated with trans-solenopsin A; also recorded: feed preferentially on soybean oil containing trans-solenopsin A
feeding preference of fire ants for soybean oil (fire ants [1]; 0.42 mg/g (420 ppm), P=0.0585): fed preferentially on oil treated with trans-solenopsin A; also recorded: feed preferentially on soybean oil containing trans-solenopsin A
feeding preference of fire ants for soybean oil (fire ants [1]; 6.6 mg/g (6600 ppm), P=0.39): did not significantly affect the feeding preference
effect on oil consumption by fire ants (fire ants [2]): no significant effect on oil consumption
